The target in test [1] is isolated recombinant JAK2 kinase domain (Homo sapiens (Human), UniProt O60674). In words: JAK2 enzyme assay (Caliper LabChip, Ki). The note with it: read-out: JAK2 Ki.
The subject of test [2] is JAK1-dependent STAT6 phosphorylation in BEAS-2B human bronchial epithelial cells. In words: JAK1 pathway assay: IL-13 stimulated STAT6 phosphorylation in BEAS-2B cells. It counts as cell-based. The following applies: BEAS-2B cells, IL-13 stimulation, read-out: IL-13 p-STAT6 BEAS-2B IC50. How it is done: JAK1 Pathway Assay in Cell Lines was Carried Out as Follows:
Inhibitor potency (EC50) was determined in cell-based assays designed to measure JAK1 dependent STAT phosphorylation.
In one assay approach, TF-1 human erythroleukemia cells obtained from the American Type Culture Collection (ATCC; Manassas, Va.) were used to measure JAK1-dependent STAT6 phosphorylation downstream of IL-13 stimulation. Prior to use in the assays, TF-1 cells were starved of GM-CSF overnight in OptiMEM medium (Life Technologies, Grand Island, N.Y.) supplemented with 0.5% charcoal/dextran stripped fetal bovine serum (FBS), 0.1 mM non-essential amino acids (NEAA), and 1 mM sodium pyruvate. The assays were run in 384-well plates in serum-free OptiMEM medium using 300,000 cells per well. In a second assay approach, BEAS-2B human bronchial epithelial cells obtained from ATCC were plated at 100,000 cells per well of a 96-well plate one day prior to the experiment. The BEAS-2B assay was run in complete growth medium (bronchial epithelial basal medium plus bulletkit; Lonza; Basel, Switzerland).
Test compounds were serially diluted 1:2 in DMSO and then diluted 1:50 in medium just before use. Diluted compounds were added to the cells, for a final DMSO concentration of 0.2%, and incubated for 30 min (for the TF-1 assay) or 1 hr (for the BEAS-2B assay) at 37° C. Then, cells were stimulated with human recombinant cytokine at their respective EC90 concentrations, as previously determined for each individual lot. Cells were stimulated with IL-13 (R&D Systems, Minneapolis, Minn.) for 15 min at 37° C. […] The resultant samples were frozen in the plates at −80° C. Compound mediated inhibition of STAT6 phosphorylation was measured in the cell lysates using MesoScale Discovery (MSD) technology (Gaithersburg, Md.).

Test [3] addresses isolated recombinant JAK1 kinase domain (Homo sapiens (Human), UniProt P23458). In words: JAK1 enzyme assay (Caliper LabChip, Ki). The test is classed as biochemical. How it is done:
The activity of the isolated recombinant JAK1 and JAK2 kinase domain was measured by monitoring phosphorylation of a peptide derived from JAK3 ([…] fluorescently labeled on the N-terminus with 5-carboxyfluorescein) using the Caliper LabChip R technology (Caliper Life Sciences, Hopkinton, Mass.).

Read-outs that look alike come from different tables or passages of the source.

isolated recombinant JAK2 kinase domain, sequence (O60674 849-1124): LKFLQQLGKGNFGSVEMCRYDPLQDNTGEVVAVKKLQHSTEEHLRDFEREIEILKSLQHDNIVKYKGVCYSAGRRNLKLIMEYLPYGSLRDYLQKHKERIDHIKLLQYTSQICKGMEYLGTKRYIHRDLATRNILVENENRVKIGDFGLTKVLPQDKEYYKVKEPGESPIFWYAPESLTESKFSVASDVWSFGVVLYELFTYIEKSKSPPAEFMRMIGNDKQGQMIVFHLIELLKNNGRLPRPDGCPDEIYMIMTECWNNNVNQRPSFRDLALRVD
isolated recombinant JAK1 kinase domain, sequence (P23458 875-1153): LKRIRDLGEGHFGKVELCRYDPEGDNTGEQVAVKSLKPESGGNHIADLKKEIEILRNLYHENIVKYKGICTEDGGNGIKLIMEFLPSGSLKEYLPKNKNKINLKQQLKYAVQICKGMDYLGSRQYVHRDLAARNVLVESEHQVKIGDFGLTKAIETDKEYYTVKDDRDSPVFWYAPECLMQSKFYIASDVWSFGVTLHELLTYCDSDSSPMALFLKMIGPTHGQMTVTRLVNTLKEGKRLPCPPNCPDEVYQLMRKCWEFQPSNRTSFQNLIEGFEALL

The term Ki denotes a dissociation constant, usually derived from enzyme kinetics or from competition with a known ligand. Usually IC50 stands for the midpoint of a concentration-inhibition curve. Take `CC1CNc2cc(OC(F)F)c(-c3nn(CC(=O)N(C)C)cc3NC(=O)c3cnn4cccnc34)cc2S1` (single isomer, unassigned) [Example 105, N-[3-[6-(difluoromethoxy)-2-methyl-3,4-dihydro-2H-1,4-benzothiazin-7-yl]-1-[2-(dimethylamino)-2-oxo-ethyl]pyrazol-4-yl]pyrazolo[1,5-a]pyrimidine-3-carboxamide]: the inhibition constant Ki in test [1] was determined as 0.13 nM; in test [3], 0.19 nM. The half-inhibitory concentration (IC50) in test [2] (Homo sapiens, BEAS-2B) amounted to 24 nM.
`CC1CNc2cc(OC(F)F)c(-c3nn(CC(=O)N(C)C)cc3NC(=O)c3cnn4cccnc34)cc2S1` (single isomer, unassigned) [Example 106, N-[3-[6-(difluoromethoxy)-2-methyl-3,4-dihydro-2H-1,4-benzothiazin-7-yl]-1-[2-(dimethylamino)-2-oxo-ethyl]pyrazol-4-yl]pyrazolo[1,5-a]pyrimidine-3-carboxamide]: the results for the Ki in test [1] and in test [3] were 0.19 nM and 0.17 nM, respectively. For the same compound, in test [2], the IC50 came to 27 nM.
Take `CC1CSc2cc(-c3nn(CC(=O)N4CCCCC4)cc3NC(=O)c3cnn4cccnc34)c(OC(F)F)cc2N1` (single isomer, unassigned) [Example 107, N-[3-[6-(difluoromethoxy)-3-methyl-3,4-dihydro-2H-1,4-benzothiazin-7-yl]-1-[2-oxo-2-(1-piperidyl)ethyl]pyrazol-4-yl]pyrazolo[1,5-a]pyrimidine-3-carboxamide]: the values for the Ki in test [1] and in test [3] were 0.23 nM and 0.2 nM, respectively. Also, the 50% inhibitory concentration (IC50) in test [2] (Homo sapiens, BEAS-2B) came to 11 nM.
In the case of `CC1CSc2cc(-c3nn(CC(=O)N4CCCCC4)cc3NC(=O)c3cnn4cccnc34)c(OC(F)F)cc2N1` (single isomer, unassigned) [Example 108, N-[3-[6-(difluoromethoxy)-3-methyl-3,4-dihydro-2H-1,4-benzothiazin-7-yl]-1-[2-oxo-2-(1-piperidyl)ethyl]pyrazol-4-yl]pyrazolo[1,5-a]pyrimidine-3-carboxamide], the Ki in test [1] is 0.23 nM; in test [3], 0.19 nM. The IC50 in test [2] stood at 12 nM.
In the case of `CC1CSc2cc(-c3nn(CC(=O)N4CC=CCC4)cc3NC(=O)c3cnn4cccnc34)c(OC(F)F)cc2N1` (single isomer, unassigned) [Example 111, N-[3-[6-(difluoromethoxy)-3-methyl-3,4-dihydro-2H-1,4-benzothiazin-7-yl]-1-[2-(3,6-dihydro-2H-pyridin-1-yl)-2-oxo-ethyl]pyrazol-4-yl]pyrazolo[1,5-a]pyrimidine-3-carboxamide], the Ki turned out to be 0.21 nM in test [1] and 0.2 nM in test [3]. In test [2] (Homo sapiens, BEAS-2B), the IC50 worked out at 15 nM.
As for `CC1CSc2cc(-c3nn(CC(=O)N4CC=CCC4)cc3NC(=O)c3cnn4cccnc34)c(OC(F)F)cc2N1` (single isomer, unassigned) [Example 112, N-[3-[6-(difluoromethoxy)-3-methyl-3,4-dihydro-2H-1,4-benzothiazin-7-yl]-1-[2-(3,6-dihydro-2H-pyridin-1-yl)-2-oxo-ethyl]pyrazol-4-yl]pyrazolo[1,5-a]pyrimidine-3-carboxamide], the values for the Ki in test [1] and in test [3] were 0.18 nM and 0.15 nM, respectively. The IC50 in test [2] came out at 10 nM.
`CC1CSc2cc(-c3nn(CC(=O)N(C)C)cc3NC(=O)c3cnn4cccnc34)c(OC(F)F)cc2N1` (single isomer, unassigned) [Example 113, N-[3-[6-(difluoromethoxy)-3-methyl-3,4-dihydro-2H-1,4-benzothiazin-7-yl]-1-[2-(dimethylamino)-2-oxo-ethyl]pyrazol-4-yl]pyrazolo[1,5-a]pyrimidine-3-carboxamide]: the Ki is 0.27 nM in test [1] and 0.22 nM in test [3]. The half-inhibitory concentration (IC50) in test [2] (Homo sapiens, BEAS-2B) worked out at 22 nM.
Turning to `CC1CSc2cc(-c3nn(CC(=O)N(C)C)cc3NC(=O)c3cnn4cccnc34)c(OC(F)F)cc2N1` (single isomer, unassigned) [Example 114, N-[3-[6-(difluoromethoxy)-3-methyl-3,4-dihydro-2H-1,4-benzothiazin-7-yl]-1-[2-(dimethylamino)-2-oxo-ethyl]pyrazol-4-yl]pyrazolo[1,5-a]pyrimidine-3-carboxamide], the Ki in test [1] came to 0.24 nM; in test [3], 0.21 nM. Further, the 50% inhibitory concentration (IC50) in test [2] is 15 nM.
As for `CN1CCC(n2cc(NC(=O)c3cnn4cccnc34)c(-c3cc4c(cc3OC(F)F)NCCS4)n2)C1=O` (single isomer, unassigned) [Example 125, N-[3-[6-(difluoromethoxy)-3,4-dihydro-2H-1,4-benzothiazin-7-yl]-1-(1-methyl-2-oxo-pyrrolidin-3-yl)pyrazol-4-yl]pyrazolo[1,5-a]pyrimidine-3-carboxamide], the Ki in test [1] was 0.11 nM; in test [3] it was 0.15 nM. In test [2], the IC50 stood at 81 nM.
The matching figures for `CN1CCC(n2cc(NC(=O)c3cnn4cccnc34)c(-c3cc4c(cc3OC(F)F)NCCS4)n2)C1=O` (single isomer, unassigned) [Example 126, N-[3-[6-(difluoromethoxy)-3,4-dihydro-2H-1,4-benzothiazin-7-yl]-1-(1-methyl-2-oxo-pyrrolidin-3-yl)pyrazol-4-yl]pyrazolo[1,5-a]pyrimidine-3-carboxamide]: 0.43 nM, 0.88 nM and 286 nM.
For the compound `O=C(Nc1cn(C2CCOC2=O)nc1-c1cc2c(cc1OC(F)F)NCCS2)c1cnn2cccnc12` (single isomer, unassigned) [Example 141, N-[3-[6-(difluoromethoxy)-3,4-dihydro-2H-1,4-benzothiazin-7-yl]-1-(2-oxotetrahydrofuran-3-yl)pyrazol-4-yl]pyrazolo[1,5-a]pyrimidine-3-carboxamide], the figures for the Ki in test [1] and in test [3] were 0.09 nM and 0.17 nM, respectively. In addition, the IC50 in test [2] (Homo sapiens, BEAS-2B) amounted to 11 nM.
Take `O=C(Nc1cn(C2CCOC2=O)nc1-c1cc2c(cc1OC(F)F)NCCS2)c1cnn2cccnc12` (single isomer, unassigned) [Example 142, N-[3-[6-(difluoromethoxy)-3,4-dihydro-2H-1,4-benzothiazin-7-yl]-1-(2-oxotetrahydrofuran-3-yl)pyrazol-4-yl]pyrazolo[1,5-a]pyrimidine-3-carboxamide]: the figures for the Ki in test [1] and in test [3] were 0.06 nM and 0.09 nM, respectively. Further, the half-maximal inhibitory concentration (IC50) in test [2] was found to be 15 nM.
As for `O=C(Nc1cn(C2CCOC2=O)nc1-c1cc2c(cc1OC(F)F)NCCO2)c1cnn2cccnc12` (single isomer, unassigned) [Example 145, N-[3-[6-(difluoromethoxy)-3,4-dihydro-2H-1,4-benzoxazin-7-yl]-1-(2-oxotetrahydrofuran-3-yl)pyrazol-4-yl]pyrazolo[1,5-a]pyrimidine-3-carboxamide], the inhibitory constant (Ki) in test [1] stood at 0.42 nM; in test [3] it was 0.6 nM. In addition, the half-inhibitory concentration (IC50) in test [2] is 36 nM.
For `O=C(Nc1cn(C2CCOC2=O)nc1-c1cc2c(cc1OC(F)F)NCCO2)c1cnn2cccnc12` (single isomer, unassigned) [Example 146, N-[3-[6-(difluoromethoxy)-3,4-dihydro-2H-1,4-benzoxazin-7-yl]-1-(2-oxotetrahydrofuran-3-yl)pyrazol-4-yl]pyrazolo[1,5-a]pyrimidine-3-carboxamide; formic acid], the Ki in test [1] (formic acid) was 0.29 nM; in test [3] (formic acid) it was 0.32 nM. Further, the half-maximal inhibitory concentration (IC50) in test [2] (formic acid) was 74 nM.

The record behind these values is patent US11155557B2, “Pyrazolopyrimidine compounds and methods of use thereof” (Genentech, Inc., priority 2016, dated 2021).
